In patent US20110092367A1, “Herbicidal Compositions Comprising 4-amino-3,6-dichloropyridine-2-carboxylic Acid” (BASF SE, priority 2008, published 2011):

Key:
Assay type in all cases: in vivo
Papaver rhoeas [1] = experiment: Field trial Example 1, successive application: damage on PAPRH
Text: (§1) Aminiopyralid was used as commercial aquaeous solution having an active ingredient concentration of 240 g/l (Milestone™). Metazachlor was used as a commercial suspension concentrate having an active ingredient concentration of 500 g/l (Butisan S®).
(§2) The performance of aminopyralid applied as an alone treatment at 15, 30 and 50 g a.i./ha applied as an early post emergence treatment and an post emergence treatment in comparison to two different applications including metazachlor at 500 g a.i./ha as an early post emergence application in succession of aminopyralid as a post emergence application at 15 and 30 g a.i./ha was assessed in an oilseed rape field trials.
(§3) The early post emergence treatment was applied by means of fine distributed nozzles at the growth stage (GS) of the crop BBCH 11-12.
(§4) The post emergence treatment was applied by means of fine distributed nozzles at the growth stage (GS) of the crop BBCH 13-14.
(§5) The test period extended over the autumn and spring season (205 days).
(§6) In the following experiments, the herbicidal activity for the individual herbicide compounds (solo application) and of the herbicidal succession was assessed 4 times:
(§7) The evaluation for the damage on undesired weeds caused by the chemical compositions was carried out using a scale from 0 to 100%, compared to the untreated control plants. Here, 0 means no damage and 100 means complete destruction of the plants.

Matricaria inodora [2] = experiment: Greenhouse trial, post-emergence: MATIN; conditions: post-emergence (Tables 7-9)
Procedure: (§8) The test plants have been seeded, separately for each species, in plastic containers in sandy loamy soil containing 5% organic matter.
(§9) For the post emergence treatment, the plants were first grown to the 2 leaf station (GS 12). Here, the herbicidal compositions were suspended or emulsified in water as distribution medium and sprayed using finely distributing nozzels.
(§10) The plants have been cultivated due to there individual requirements at 10-25° C. and 20-35° C. The plants were irrigated due to there necessity. […]
as §7
(§11) Calculation of expected activity of binary mixtures was done by using the Colby-Formula according to Example 1.

Lamium purpureum = experiment: Greenhouse trial, post-emergence: LAMPU; conditions: for % activity 28 DAT: LAMPU
Procedure: as §8, §9, §10, §7, §11

Papaver rhoeas [3] = experiment: Field trial Example 2, combined application: PAPRH
Procedure: as §1, §7
(§12) The value E, which is to be expected if the activity of the individual compounds is just additive, was calculated using the method of S. R. Colby (1967) “Calculating synergistic and antagonistic responses of herbicide combinations”, Weeds 15, p. 22 ff.
(§13) The performance of aminopyralid, applied as an alone treatment at […] and 15 g ai/ha, and the performance of metazachlor, applied as an alone treatment at 375 and 500 g ai/ha, as well as the mixtures of the both compounds have been assessed in winter oilseed rape field trials. The trials have been conducted in Germany at two locations.
(§14) Post emergence treatment was applied by means of fine distributed nozzels at the growth stage (GS/BBCH 11/12).

Alopecurus myosuroides [4] = experiment: Field trial Example 2, combined application: ALOMY; conditions: Aminopyralid 7.5 g ai/ha solo, 28 DAT
Procedure: as §1, §7, §12, §13, §14

Galium aparine = experiment: Field trial Example 1, successive application: damage on GALAP
Text: as §1, §2, §3, §4, §5, §6, §7

Alopecurus myosuroides [5] = experiment: Field trial Example 1, successive application: damage on ALOMY
Text: as §1, §2, §3, §4, §5, §6, §7

Matricaria inodora [6] = experiment: Field trial Example 2, combined application: MATIN; conditions: Aminopyralid 7.5 g ai/ha solo
Procedure: as §1, §7, §12, §13, §14

[7] = 15 g ai/ha, treatment A early post emergence, DAT 25/DALT 10
[8] = 15 g ai/ha, treatment A early post emergence, DAT 65/DALT 50
[9] = 15 g ai/ha, treatment A early post emergence, DAT 176/DALT 161
[10] = 15 g ai/ha, treatment B post emergence, DAT 25/DALT 10
[11] = 15 g ai/ha, treatment B post emergence, DAT 65/DALT 50
[12] = 15 g ai/ha, treatment B post emergence, DAT 176/DALT 161
[13] = 30 g ai/ha, treatment A early post emergence, DAT 25/DALT 10
[14] = 30 g ai/ha, treatment A early post emergence, DAT 65/DALT 50
[15] = 30 g ai/ha, treatment A early post emergence, DAT 176/DALT 161
[16] = 30 g ai/ha, treatment B post emergence, DAT 25/DALT 10
[17] = 30 g ai/ha, treatment B post emergence, DAT 65/DALT 50
[18] = 30 g ai/ha, treatment B post emergence, DAT 176/DALT 161
[19] = 50 g ai/ha, treatment A early post emergence, DAT 25/DALT 10
[20] = 50 g ai/ha, treatment A early post emergence, DAT 65/DALT 50
[21] = 50 g ai/ha, treatment A early post emergence, DAT 176/DALT 161
[22] = 50 g ai/ha, treatment B post emergence, DAT 25/DALT 10
[23] = 50 g ai/ha, treatment B post emergence, DAT 65/DALT 50
[24] = 50 g ai/ha, treatment B post emergence, DAT 176/DALT 161
[25] = aminopyralid 15 g ai/ha, treatment A, DAT 205/DALT 190
[26] = aminopyralid 15 g ai/ha, treatment B, DAT 205/DALT 190
[27] = aminopyralid 30 g ai/ha, treatment A, DAT 205/DALT 190
[28] = aminopyralid 30 g ai/ha, treatment B, DAT 205/DALT 190
[29] = aminopyralid 50 g ai/ha, treatment A, DAT 205/DALT 190
[30] = aminopyralid 50 g ai/ha, treatment B, DAT 205/DALT 190
[31] = Lamium purpureum, post-emergence, 672 h, read-out: % activity 28 DAT, LAMPU

SMILES: Nc1cc(Cl)nc(C(=O)O)c1Cl [aminopyralid, 4-amino-3,6-dichloropyridine-2-carboxylic acid]
- damage on PAPRH (Papaver rhoeas [1]; [7]): 93%
- damage on PAPRH (Papaver rhoeas [1]; [8]): 93%
- damage on PAPRH (Papaver rhoeas [1]; [9]): 96%
- damage on PAPRH (Papaver rhoeas [1]; [10]): 72%
- damage on PAPRH (Papaver rhoeas [1]; [11]): 75%
- damage on PAPRH (Papaver rhoeas [1]; [12]): 96%
- damage on PAPRH (Papaver rhoeas [1]; [13]): 98%
- damage on PAPRH (Papaver rhoeas [1]; [14]): 95%
- damage on PAPRH (Papaver rhoeas [1]; [15]): 99%
- damage on PAPRH (Papaver rhoeas [1]; [16]): 72%
- damage on PAPRH (Papaver rhoeas [1]; [17]): 80%
- damage on PAPRH (Papaver rhoeas [1]; [18]): 96%
- damage on PAPRH (Papaver rhoeas [1]; [19]): 100%
- damage on PAPRH (Papaver rhoeas [1]; [20]): 100%
- damage on PAPRH (Papaver rhoeas [1]; [21]): 100%
- damage on PAPRH (Papaver rhoeas [1]; [22]): 80%
- damage on PAPRH (Papaver rhoeas [1]; [23]): 85%
- damage on PAPRH (Papaver rhoeas [1]; [24]): 97%
- damage on PAPRH (Papaver rhoeas [1]; [25]): 97%
- damage on PAPRH (Papaver rhoeas [1]; [26]): 97%
- damage on PAPRH (Papaver rhoeas [1]; [27]): 98%
- damage on PAPRH (Papaver rhoeas [1]; [28]): 100%
- damage on PAPRH (Papaver rhoeas [1]; [29]): 100%
- damage on PAPRH (Papaver rhoeas [1]; [30]): 98%
- % activity 28 DAT (Matricaria inodora [2]; aminopyralid 5 g ai/ha solo): 35%
- % activity 28 DAT (Matricaria inodora [2]; aminopyralid 10 g ai/ha solo): 80%
- % activity 28 DAT (Lamium purpureum; aminopyralid 5 g ai/ha solo, post-emergence (Table 10)): 20%
- % activity 28 DAT (Lamium purpureum; aminopyralid 5 g ai/ha solo, post-emergence (Tables 7-9)): 30%
- % activity 28 DAT (Lamium purpureum; aminopyralid 10 g ai/ha solo, post-emergence (Table 10)): 30%
- % activity 28 DAT (Lamium purpureum; aminopyralid 10 g ai/ha solo, post-emergence (Tables 7-9)): 65%
- inhibition at 5 g/ha (Lamium purpureum; [31]): 20%
- inhibition at 10 g/ha (Lamium purpureum; [31]): 30%
- % activity (Papaver rhoeas [3]; Aminopyralid 7.5 g ai/ha solo, 29 DAT): 94%
- % activity (Papaver rhoeas [3]; Aminopyralid 7.5 g ai/ha solo, 72 DAT): 88%
- % activity (Papaver rhoeas [3]; Aminopyralid 7.5 g ai/ha solo, 78 DAT): 95%
- % activity (Papaver rhoeas [3]; Aminopyralid 15 g ai/ha solo, 28 DAT): 92%
- % activity (Papaver rhoeas [3]; Aminopyralid 15 g ai/ha solo, 72 DAT): 97%
- % activity (Alopecurus myosuroides [4]): 60%
- damage on GALAP (Galium aparine; [7]): 67%
- damage on GALAP (Galium aparine; [8]): 77%
- damage on GALAP (Galium aparine; [9]): 86%
- damage on GALAP (Galium aparine; [10]): 72%
- damage on GALAP (Galium aparine; [11]): 78%
- damage on GALAP (Galium aparine; [12]): 82%
- damage on GALAP (Galium aparine; [13]): 92%
- damage on GALAP (Galium aparine; [14]): 96%
- damage on GALAP (Galium aparine; [15]): 96%
- damage on GALAP (Galium aparine; [16]): 72%
- damage on GALAP (Galium aparine; [17]): 78%
- damage on GALAP (Galium aparine; [18]): 86%
- damage on GALAP (Galium aparine; [19]): 99%
- damage on GALAP (Galium aparine; [20]): 99%
- damage on GALAP (Galium aparine; [21]): 100%
- damage on GALAP (Galium aparine; [22]): 87%
- damage on GALAP (Galium aparine; [23]): 87%
- damage on GALAP (Galium aparine; [24]): 89%
- damage on GALAP (Galium aparine; [25]): 88%
- damage on GALAP (Galium aparine; [26]): 87%
- damage on GALAP (Galium aparine; [27]): 93%
- damage on GALAP (Galium aparine; [28]): 91%
- damage on GALAP (Galium aparine; [29]): 100%
- damage on GALAP (Galium aparine; [30]): 93%
- damage on ALOMY (Alopecurus myosuroides [5]; [7]): 0%
- damage on ALOMY (Alopecurus myosuroides [5]; [8]): 22%
- damage on ALOMY (Alopecurus myosuroides [5]; [9]): 22%
- damage on ALOMY (Alopecurus myosuroides [5]; [10]): 0%
- damage on ALOMY (Alopecurus myosuroides [5]; [11]): 25%
- damage on ALOMY (Alopecurus myosuroides [5]; [12]): 25%
- damage on ALOMY (Alopecurus myosuroides [5]; [13]): 57%
- damage on ALOMY (Alopecurus myosuroides [5]; [14]): 37%
- damage on ALOMY (Alopecurus myosuroides [5]; [15]): 37%
- damage on ALOMY (Alopecurus myosuroides [5]; [16]): 0%
- damage on ALOMY (Alopecurus myosuroides [5]; [17]): 32%
- damage on ALOMY (Alopecurus myosuroides [5]; [18]): 32%
- damage on ALOMY (Alopecurus myosuroides [5]; [19]): 77%
- damage on ALOMY (Alopecurus myosuroides [5]; [20]): 80%
- damage on ALOMY (Alopecurus myosuroides [5]; [21]): 80%
- damage on ALOMY (Alopecurus myosuroides [5]; [22]): 20%
- damage on ALOMY (Alopecurus myosuroides [5]; [23]): 42%
- damage on ALOMY (Alopecurus myosuroides [5]; [24]): 42%
- damage on ALOMY (Alopecurus myosuroides [5]; [25]): 22%
- damage on ALOMY (Alopecurus myosuroides [5]; [26]): 38%
- damage on ALOMY (Alopecurus myosuroides [5]; [27]): 37%
- damage on ALOMY (Alopecurus myosuroides [5]; [28]): 32%
- damage on ALOMY (Alopecurus myosuroides [5]; [29]): 80%
- damage on ALOMY (Alopecurus myosuroides [5]; [30]): 42%
- % activity (Matricaria inodora [6]; 28 DAT): 78%
- % activity (Matricaria inodora [6]; 29 DAT): 87%
